From patent publication US9975874B2, “Factor XIa inhibitors” (Merck Sharp & Dohme Corp., priority 2014, dated 2018)
Like-named read-outs stand apart in the source and are kept apart here.

Tests used:
[1] = target: purified Human plasma kallikrein (Homo sapiens (Human), UniProt P03952); assay: Kallikrein Assay; type: biochemical
Description: (§1) The effectiveness of a compound of the present invention as an inhibitor of Kallikrein can be determined using a relevant purified serine protease, and an appropriate synthetic substrate. The rate of hydrolysis of the chromogenic or fluorogenic substrate by the relevant serine protease was measured both in the absence and presence of compounds of the present invention. Assays were conducted at room temperature or at 37° C. […] A decrease in the rate of fluorescence change in the presence of inhibitor is indicative of enzyme inhibition. Such methods are known to one skilled in the art. The results of this assay are expressed as the inhibitory constant, Ki.
Kallikrein determinations were made in 50 mM HEPES buffer at pH 7.4 containing 150 mM NaCl, 5 mM CaCl2, and 0.1% PEG 8000 (polyethylene glycol; Fisher Scientific). Determinations were made using purified Human plasma kallikrein at a final concentration of 0.5 nM (Enzyme Research Laboratories) and the synthetic substrate, Acetyl-K-P-R-AFC (Sigma # C6608) at a concentration of […].
Times required to achieve equilibration between enzyme and inhibitor were determined in control experiments. The reactions were performed under linear progress curve conditions and fluorescence increase measured at 405 Ex/510 Em nm. […] IC50 was determined by inflection point from a four parameter logistic curve fit. Ki was calculated using the Cheng Prusoff equation, Ki=IC50/(1+([S]/Km)).

[2] = target: purified human Factor XIa (Homo sapiens (Human), UniProt P03951); assay: Factor XIa Assay; type: biochemical
Description: as §1, with “Coagulation Factor XIa” for “Kallikrein”, “The results of this assay are expressed as the inhibitory constant, Ki.” left out
Factor XIa determinations were made in 50 mM HEPES buffer at pH 7.4 containing 150 mM NaCl, 5 mM CaCl2, and 0.1% PEG 8000 (polyethylene glycol; JT Baker or Fisher Scientific). Determinations were made using purified human Factor XIa at a final concentration of 40 pM (Sekisui Diagnostics) and the synthetic substrate, Z-Gly-Pro-Arg-AFC, TFA salt (Sigma #C0980) at a concentration of 100 μM.
Times required to achieve equilibration between enzyme and inhibitor were determined in control experiments. Initial velocities of product formation in the absence (Vo) or presence of inhibitor (Vi) were measured. Assuming competitive inhibition, and that unity is negligible compared Km/[S], [I]/e, and [I]/e (where [S], [I], and e respectively represent the total concentrations, of substrate, inhibitor and enzyme), the equilibrium constant (Ki) for dissociation of the inhibitor from the enzyme can be obtained from the dependence of Vo/Vi on [I] shown in the following equation.

[3] = Plasma kallikrein, substrate Acetyl-K-P-R-AFC, 0.5 nM enzyme, pH 7.4, read-out: PK IC50
[4] = substrate Z-Gly-Pro-Arg-AFC 100 μM, 40 pM enzyme, pH 7.4, read-out: FXIa IC50

purified human Factor XIa, sequence (P03951 388-625): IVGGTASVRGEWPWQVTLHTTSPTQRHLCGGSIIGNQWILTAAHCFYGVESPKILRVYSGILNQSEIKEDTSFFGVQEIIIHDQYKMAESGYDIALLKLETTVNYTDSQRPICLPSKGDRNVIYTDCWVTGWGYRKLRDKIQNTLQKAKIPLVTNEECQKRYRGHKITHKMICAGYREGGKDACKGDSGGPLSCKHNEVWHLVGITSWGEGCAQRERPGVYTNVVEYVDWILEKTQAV
purified human Factor XIa, sequence (P03951 19-387 partner): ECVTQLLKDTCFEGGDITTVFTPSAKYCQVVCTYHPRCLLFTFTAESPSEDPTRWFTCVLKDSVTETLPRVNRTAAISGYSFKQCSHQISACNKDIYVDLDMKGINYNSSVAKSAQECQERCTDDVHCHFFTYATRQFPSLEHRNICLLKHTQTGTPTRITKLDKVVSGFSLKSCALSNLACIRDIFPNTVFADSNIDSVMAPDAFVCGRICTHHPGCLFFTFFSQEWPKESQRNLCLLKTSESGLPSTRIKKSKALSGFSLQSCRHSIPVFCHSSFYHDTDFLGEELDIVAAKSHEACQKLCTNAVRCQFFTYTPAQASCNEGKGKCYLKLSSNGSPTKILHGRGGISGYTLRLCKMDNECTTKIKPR
purified Human plasma kallikrein, sequence (P03952 391-638): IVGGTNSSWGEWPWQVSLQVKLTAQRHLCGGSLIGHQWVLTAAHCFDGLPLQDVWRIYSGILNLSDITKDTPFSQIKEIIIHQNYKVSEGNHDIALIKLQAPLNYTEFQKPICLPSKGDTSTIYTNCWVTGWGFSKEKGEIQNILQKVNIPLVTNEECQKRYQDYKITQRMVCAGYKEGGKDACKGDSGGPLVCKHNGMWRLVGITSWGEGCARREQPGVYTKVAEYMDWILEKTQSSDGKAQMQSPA
purified Human plasma kallikrein, sequence (P03952 20-390 partner): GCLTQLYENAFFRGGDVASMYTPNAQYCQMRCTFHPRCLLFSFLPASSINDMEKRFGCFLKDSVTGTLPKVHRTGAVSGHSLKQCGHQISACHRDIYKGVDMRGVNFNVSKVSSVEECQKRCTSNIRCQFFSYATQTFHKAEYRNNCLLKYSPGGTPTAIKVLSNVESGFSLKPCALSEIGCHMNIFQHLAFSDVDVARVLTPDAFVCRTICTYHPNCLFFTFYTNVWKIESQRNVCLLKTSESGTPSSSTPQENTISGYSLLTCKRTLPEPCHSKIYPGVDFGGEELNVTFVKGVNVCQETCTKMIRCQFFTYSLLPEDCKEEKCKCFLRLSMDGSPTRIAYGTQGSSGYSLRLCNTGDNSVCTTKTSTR

SMILES	IC50 [1, 3] [nM]	IC50 [2, 4] [nM]	IC50 [1] [nM]	IC50 [2] [nM]
O=C(O)c1cccc(-c2cccc([C@@H](Cc3ccccc3)c3ccc(-c4cc(Cl)ccc4-n4cnnn4)c[n+]3[O-])c2)c1 (stereo in doubt) [Example 8, 2-(1-(3′-carboxy-[1,1′-biphenyl]-3-yl)-2-phenylethyl)-5-(5-chloro-2-(1H-tetrazol-1-yl)phenyl)pyridine 1-oxide]	6920	41	–	–
O=C(O)c1cccc(-c2cccc([C@H](Cc3ccccc3)c3ccc(-c4cc(Cl)ccc4-n4cnnn4)c[n+]3[O-])c2)c1 (stereo in doubt) [Example 9, 2-(1-(3′-carboxy-[1,1′-biphenyl]-3-yl)-2-phenylethyl)-5-(5-chloro-2-(1H-tetrazol-1-yl)phenyl)pyridine 1-oxide]	24.9	0.267	–	–
COC(=O)Nc1ccc(-c2cccc([C@H](Cc3ccccc3)c3ccc(-c4cc(Cl)ccc4-n4cnnn4)c[n+]3[O-])c2)cc1 [Example 3, (S)-5-(5-Chloro-2-(1H-tetrazol-1-yl)phenyl)-2-(1-(4′-((methoxycarbonyl)amino)-[1,1′-biphenyl]-3-yl)-2-phenylethyl)pyridine 1-oxide]	34.3	2.07	–	–
CS(=O)(=O)c1ccc(-c2cccc(C(Cc3ccccc3)c3ccc(-c4cc(Cl)ccc4-n4cnnn4)c[n+]3[O-])c2)cc1 (stereo not shown) [Example 4]	4660	38.9	–	–
CS(=O)(=O)c1ccc(-c2cccc([C@H](Cc3ccccc3)c3ccc(-c4cc(Cl)ccc4-n4cnnn4)c[n+]3[O-])c2)cc1 [Example 6]	1110	31.1	–	–
O=C(O)c1cccc(-c2cc(F)cc([C@H](Cc3ccccc3)c3ccc(-c4cc(Cl)ccc4-n4cnnn4)c[n+]3[O-])c2)c1 [Example 14]	19.1	0.301	–	–
NC(=O)c1cccc(-c2cc(F)cc([C@H](Cc3ccccc3)c3ccc(-c4cc(Cl)ccc4-n4cnnn4)c[n+]3[O-])c2)c1 [Example 16]	178	3.34	–	–
O=C(O)c1cccc(-c2cccc(C(CC3CC3)c3ccc(-c4cc(Cl)ccc4-n4cnnn4)c[n+]3[O-])c2)c1 (stereo not shown) [Example 18]	250	12	–	–
O=C(C1CC1(F)F)N1CCC(c2cccc([C@H](Cc3ccccc3)c3ccc(-c4cc(Cl)ccc4-n4cnnn4)c[n+]3[O-])c2)CC1 (stereo partly drawn) [Example 30, 5-[5-chloro-2-(1H-tetrazol-1-yl)phenyl]-2-[(1S)-1-(3-{1-[(2,2-difluoro-cyclopropyl)carbonyl]piperidin-4-yl}phenyl)-2-phenylethyl] pyridine 1-oxide]	820	28.6	–	–
O=C(C1CCCO1)N1CCC(c2cccc([C@H](Cc3ccccc3)c3ccc(-c4cc(Cl)ccc4-n4cnnn4)c[n+]3[O-])c2)CC1 (stereo partly drawn) [Example 31, 5-[5-chloro-2-(1H-tetrazol-1-yl)phenyl]-2-[(1S)-2-phenyl-1-{3-[1-(tetrahydrofuran-2-ylcarbonyl)piperidin-4-yl]phenyl}ethyl] pyridine 1-oxide]	336	10.8	–	–
O=C1CC(C(=O)N2CCC(c3cccc([C@H](Cc4ccccc4)c4ccc(-c5cc(Cl)ccc5-n5cnnn5)c[n+]4[O-])c3)CC2)C1 [Example 32, 3-[(4-{3-[(1S)-1-{5-[5-chloro-2-(1H-tetrazol-1-yl)phenyl]-1-oxidopyridin-2-yl}-2-phenylethyl]phenyl}piperidin-1-yl)carbonyl] cyclobutanone]	324	11.1	–	–
O=C(C1CCO1)N1CCC(c2cccc([C@H](Cc3ccccc3)c3ccc(-c4cc(Cl)ccc4-n4cnnn4)c[n+]3[O-])c2)CC1 (stereo partly drawn) [Example 35, 5-[5-chloro-2-(1H-tetrazol-1-yl)phenyl]-2-[(1S)-1-{3-[1-(oxetan-2-ylcarbonyl)piperidin-4-yl]phenyl}-2-phenylethyl] pyridine 1-oxide]	403	12.2	–	–
O=C(CF)N1CCC(c2cccc([C@H](Cc3ccccc3)c3ccc(-c4cc(Cl)ccc4-n4cnnn4)c[n+]3[O-])c2)CC1 [Example 38, 5-[5-chloro-2-(1H-tetrazol-1-yl)phenyl]-2-[(1S)-1-{3-[1-(fluoroacetyl)piperidin-4-yl]phenyl}-2-phenylethyl] pyridine 1-oxide]	–	–	322	10.9
O=C(NC1CCCC1)N1CCC(c2cccc([C@H](Cc3ccccc3)c3ccc(-c4cc(Cl)ccc4-n4cnnn4)c[n+]3[O-])c2)CC1 [Example 47, 4-{3-[(1S)-1-{5-[5-chloro-2-(1H-tetrazol-1-yl)phenyl]-1-oxidopyridin-2-yl}-2-phenylethyl]phenyl}-N-cyclopentyl piperidine-1-carboxamide]	879	20.1	–	–
O=C(NC1CCOC1)N1CCC(c2cccc([C@H](Cc3ccccc3)c3ccc(-c4cc(Cl)ccc4-n4cnnn4)c[n+]3[O-])c2)CC1 (stereo partly drawn) [Example 49, 4-{3-[(1S)-1-{5-[5-chloro-2-(1H-tetrazol-1-yl)phenyl]-1-oxidopyridin-2-yl}-2-phenylethyl]phenyl}-N-(tetrahydrofuran-3-yl)piperidine-1-carboxamide]	414	6.89	–	–

Continued, in another order:

IC50 [1, 3] [nM]	IC50 [2, 4] [nM]	SMILES	IC50 [1] [nM]	IC50 [2] [nM]
271	7.25	CCNC(=O)N1CCC(c2cccc([C@H](Cc3ccccc3)c3ccc(-c4cc(Cl)ccc4-n4cnnn4)c[n+]3[O-])c2)CC1 [Example 28, 4-{3-[(1S)-1-{5-[5-chloro-2-(1H-tetrazol-1-yl)phenyl]-1-oxidopyridin-2-yl}-2-phenylethyl]phenyl}-N-ethylpiperidine-1-carboxamide]	–	–
376	11.2	COCCC(=O)N1CCC(c2cccc([C@H](Cc3ccccc3)c3ccc(-c4cc(Cl)ccc4-n4cnnn4)c[n+]3[O-])c2)CC1 [Example 33, 5-[5-chloro-2-(1H-tetrazol-1-yl)phenyl]-2-[(1S)-1-{3-[1-(3-methoxy-propanoyl)piperidin-4-yl]phenyl}-2-phenylethyl] pyridine 1-oxide]	–	–
371	10.6	O=C(C1CC1)N1CCC(c2cccc([C@H](Cc3ccccc3)c3ccc(-c4cc(Cl)ccc4-n4cnnn4)c[n+]3[O-])c2)CC1 [Example 34, 5-[5-chloro-2-(1H-tetrazol-1-yl)phenyl]-2-[(1S)-1-{3-[1-(cyclopropyl-carbonyl)piperidin-4-yl]phenyl}-2-phenylethyl] pyridine 1-oxide]	–	–
382	8.17	COCC(=O)N1CCC(c2cccc([C@H](Cc3ccccc3)c3ccc(-c4cc(Cl)ccc4-n4cnnn4)c[n+]3[O-])c2)CC1 [Example 36, 5-[5-chloro-2-(1H-tetrazol-1-yl)phenyl]-2-[(1S)-1-{3-[1-(methoxyacetyl)piperidin-4-yl]phenyl}-2-phenylethyl] pyridine 1-oxide]	–	–
113	9.95	NC(=O)C(=O)N1CCC(c2cccc([C@H](Cc3ccccc3)c3ccc(-c4cc(Cl)ccc4-n4cnnn4)c[n+]3[O-])c2)CC1 [Example 39, 2-(4-{3-[(1S)-1-{5-[5-chloro-2-(1H-tetrazol-1-yl)phenyl]-1-oxidopyridin-2-yl}-2-phenylethyl]phenyl}piperidin-1-yl)-2-oxoacetamide]	–	–
413	11.8	O=C(C1COC1)N1CCC(c2cccc([C@H](Cc3ccccc3)c3ccc(-c4cc(Cl)ccc4-n4cnnn4)c[n+]3[O-])c2)CC1 [Example 40]	–	–
659	43.9	COCCOC(=O)N1CCC(c2cccc([C@H](Cc3ccccc3)c3ccc(-c4cc(Cl)ccc4-n4cnnn4)c[n+]3[O-])c2)CC1 [Example 45, 2-methoxyethyl 4-{3-[(1S)-1-{5-[5-chloro-2-(1H-tetrazol-1-yl)phenyl]-1-1-oxidopyridin-2-yl}-2-phenylethyl]phenyl} piperidine-1-carboxylate]	–	–
325	8.71	COCCNC(=O)N1CCC(c2cccc([C@H](Cc3ccccc3)c3ccc(-c4cc(Cl)ccc4-n4cnnn4)c[n+]3[O-])c2)CC1 [Example 48, 4-{3-[(1s)-1-{5-[5-chloro-2-(1H-tetrazol-1-yl)phenyl]-1-oxidopyridin-2-yl}-2-phenylethyl]phenyl}-N-(2-methoxyethyl) piperidine-1-carboxamide]	–	–
